Measurements taken from patent US20240376076A1, “INHIBITORS TARGETING UBIQUITIN SPECIFIC PROTEASE 7 (USP7)” (Dana-Farber Cancer Institute, Inc., priority 2021, published 2024).

Key:
[1] = molecular target: T1, USP7, Active human recombinant protein (Homo sapiens, UniProt Q93009); experiment: USP7 assay (Ubiquitin-Rhodamine 110 enzymatic assay); format: biochemical; details: read-out: IC50
T1 construct: purchased CP Lot; 20200225001
Procedure, shortened: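 Kinetic 20-min fluorescence read (485/535 nm) of ubiquitin-rhodamine 110 (190 nM final) cleavage by 0.05 nM USP7 gave slopes. Compounds, 10 concentrations in 3-fold steps, had 15 min RT preincubation with enzyme first. Inhibition relative to max (enzyme+substrate) and min (substrate only) signals, fitted to IC50.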

[2] = mouse liver microsomal stability (Microsome Assay Protocol); format: in vitro ADME; details: pH 7.4; mouse liver microsomes, NADPH, 37° C.; read-out: MLM t1/2, min
Protocol: (§1) ND refers to not disclosed.
• 1. Buffer A: 1.0 L of 0.1 M monobasic Potassium Phosphate buffer containing 1.0 mM EDTA Buffer B: 1.0 L of 0.1 M Dibasic Potassium Phosphate buffer containing 1.0 mM EDTA • Buffer C: 0.1 M Potassium Phosphate buffer, 1.0 mM EDTA, pH 7.4 by titrating 700 mL of buffer B with buffer A while monitoring with a pH meter. • 2. Reference compound (Ketanserin) and test compounds spiking solution: • 500 μM spiking solution: added 10 μL of 10 mM DMSO stock solution into 190 μL ACN. • 1.5 μM spiking solution in microsomes (0.75 mg/mL): added 1.5 μL of 500 μM spiking solution and 18.75 μL of 20 mg/mL liver microsomes into 479.75 μL of Buffer C on ice. • 3. Prepared NADPH stock solution (6 mM) by dissolving NADPH into buffer C. Dispensed 30 μL of 1.5 μM spiking solution containing 0.75 mg/mL microsomes solution to the assay plates designated for different time points (0-, 5-, 15-, 30-, 45-min) on ice. For 0-min, added 135 μL of ACN containing IS to the wells of 0-min plate and then added 15 μL of NADPH stock solution (6 mM). Pre-incubated all other plates at 37° C. for 5 minutes. Added 15 μL of NADPH stock solution (6 mM) to the plates to start the reaction and timing. At 5-min, 15-min, 30-min, and 45-min, added 135 μL of ACN containing IS to the wells of corresponding plates, respectively, to stop the reaction. After quenching, shook the plates at the vibrator (IKA, MTS 2/4) for 10 min (600 rpm/min) and then centrifuged at 5594 g for 15 min (Thermo Multifuge×3R). Transferred 50 μL of the supernatant from each well into a 96-well sample plate containing 50 μL of ultra pure water (Millipore, ZMQS50F01) for LC/MS analysis.

[3] = plasma stability (Plasma Assay Protocol); format: in vitro ADME; details: 37° C., t1/2 extrapolated if >50% remaining at 60 min, ∞ if near 100% remaining
Protocol: as §1
• 1. Preheated 0.05 M sodium phosphate and 0.07 M NaCl buffer, pH 7.4. Dissolved 14.505 g/L Na2HPO4·12H2O, 1.483 g/L NaH2PO4·2H2O and 4.095 g/L NaCl in deionized water. The basic solution was then titrated with the phosphoric acid to pH 7.40. Stored in fridge up to 7 days. Checked pH on the day of experiment and adjust if outside specification of 7.4+/−0.1. • 2. Plasma preparation: • Thawed frozen plasma by placing at 37° C. quickly. Centrifuged plasma at 3,000 rpm for 8 minutes to remove clots, pipetted and pooled the supernatant as the plasma to be used in the experiment. Checked and recorded the pH of the plasma. Only used plasma within the range of pH 7.4 to pH 8. If higher than pH 8, discarded the plasma. By using a 5% CO2 incubator and PBS buffer, a pH of 7.4 was reached after the 4 hour equilibrium dialysis time. Put the plasma on ice until used. • 3. Tested compounds and reference compounds spiking solution: • 0.5 mM test compounds spiking solution A: Added 10 μL of 10 mM test compounds stock solution to 190 μL DMSO. • 0.02 mM spiking solution B: Added 40 μL of spiking solution A to 960 μL of […] Sodium phosphate buffer with 0.5% BSA.
Pre-warmed the plasma and spiking solution B at 37° C. for 5 min. Added 10 μL of pre-warmed spiking solution B into the wells designated for all the time points (5, 15, 30, 45, 60 min).
For 0-min, added 400 μL of acetonitrile (ACN) containing the internal standard (IS) to the wells of 0-min plate and then added 90 μL of plasma. Added 90 μL of pre-warmed plasma into the wells designated for the time points (0, 5, 15, 30, 45, 60 min), and started timing. At 5, 15, 30, 45, 60 min, added 400 μL of ACN containing IS to the wells of corresponding plates, respectively, to stop the reaction. After quenching, shook the plates at the vibrator (IKA, MTS 2/4) for 10 min (600 rpm/min) and then centrifuged at 5594 g for 15 min (Thermo Multifuge×3R). Transferred 50 μL of the supernatant from each well into a 96-well sample plate containing 50 μL of ultra pure water (Millipore ZMQS50F01) for LC/MS analysis.

T1 sequence (Q93009 whole entry): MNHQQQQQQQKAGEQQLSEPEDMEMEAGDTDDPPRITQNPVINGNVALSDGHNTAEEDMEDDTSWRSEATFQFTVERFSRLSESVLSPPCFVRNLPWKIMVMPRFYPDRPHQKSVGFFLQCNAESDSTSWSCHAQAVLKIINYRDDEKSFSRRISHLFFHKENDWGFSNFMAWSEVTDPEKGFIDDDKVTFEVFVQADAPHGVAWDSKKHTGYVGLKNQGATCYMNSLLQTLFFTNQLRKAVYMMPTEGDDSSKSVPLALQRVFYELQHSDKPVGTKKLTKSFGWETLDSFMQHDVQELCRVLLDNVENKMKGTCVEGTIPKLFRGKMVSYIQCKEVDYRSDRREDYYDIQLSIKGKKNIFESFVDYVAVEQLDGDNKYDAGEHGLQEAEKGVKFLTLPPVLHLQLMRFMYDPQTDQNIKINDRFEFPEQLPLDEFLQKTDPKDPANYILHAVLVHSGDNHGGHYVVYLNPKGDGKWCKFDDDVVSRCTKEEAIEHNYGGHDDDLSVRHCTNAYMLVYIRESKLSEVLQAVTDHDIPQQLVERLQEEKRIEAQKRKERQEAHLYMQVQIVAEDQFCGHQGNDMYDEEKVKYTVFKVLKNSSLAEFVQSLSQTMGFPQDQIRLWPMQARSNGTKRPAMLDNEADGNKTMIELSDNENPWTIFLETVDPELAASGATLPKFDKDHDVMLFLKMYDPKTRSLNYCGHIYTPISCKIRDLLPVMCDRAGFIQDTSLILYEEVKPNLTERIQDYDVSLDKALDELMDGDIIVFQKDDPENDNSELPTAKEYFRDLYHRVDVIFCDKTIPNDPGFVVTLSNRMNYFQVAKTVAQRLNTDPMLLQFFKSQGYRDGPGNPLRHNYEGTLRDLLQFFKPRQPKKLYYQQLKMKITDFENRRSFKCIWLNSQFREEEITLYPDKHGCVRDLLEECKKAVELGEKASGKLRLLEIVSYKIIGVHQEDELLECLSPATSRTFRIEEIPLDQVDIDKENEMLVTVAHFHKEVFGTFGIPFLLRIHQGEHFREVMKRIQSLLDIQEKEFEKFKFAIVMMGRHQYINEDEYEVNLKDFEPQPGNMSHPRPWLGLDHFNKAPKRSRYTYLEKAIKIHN

Row | Structure (SMILES) | IC50 [1] [µM] | half-life at 1 µM [2] [min] | half-life at 2 µM [3] [min] | Plasma t1/2, min [3]
1 | CN1CCN(CCC(=O)Nc2ccc3c(=O)n(CC4(O)CCN(C(=O)[C@@H](CCCNC(=O)c5ccc6c(Cl)c7c(nc6c5)CCCC7)Cc5ccccc5)CC4)cnc3c2)CC1 | < 0.02 | 2 | > 500 | 
2 | CN(C)CCCOc1ccc2c(=O)n(CC3(O)CCN(C(=O)[C@H](CCCNC(=O)c4ccc5c(Cl)cc(C6CC6)nc5c4)Cc4ccccc4)CC3)cnc2c1 | < 0.02 | 27.1 |  | ∞*
3 | CN(C)CCCOc1ccc2c(=O)n(CC3(O)CCN(C(=O)C(CCCNC(=O)c4ccc5c(Cl)c(C(N)=O)cnc5c4)Cn4ccc(F)n4)CC3)cnc2c1 (stereo not drawn) | < 0.02 | 131 | 85.9 | 
4 | CN(C)CCCOc1ccc2c(=O)n(CC3(O)CCN(C(=O)[C@@H](CCCNC(=O)c4ccc5c(Cl)c(C(N)=O)cnc5c4)Cn4ccc(F)n4)CC3)cnc2c1 | < 0.02 | 223 | 85.9 | 
5 | CN(C)CCCOc1ccc2c(=O)n(CC3(O)CCN(C(=O)[C@H](Cc4ccccc4)N(C)CCNC(=O)c4ccc5c(Cl)c(C(N)=O)cnc5c4)CC3)cnc2c1 | > 1 | 101 | 149 | 
6 | CN(C)CCCOc1ccc2c(=O)n(CC3(O)CCN(C(=O)C(CCCNC(=O)c4ccc5c(Cl)cc(C6CC6)nc5c4)Cn4ccc(F)n4)CC3)cnc2c1 (stereo not drawn) | < 0.02 | 17 | 188 | 
7 | CN(C)CCCOc1ccc2c(=O)n(CC3(O)CCN(C(=O)[C@@H](CCCNC(=O)c4ccc5c(Cl)c6c(nc5c4)CCCC6)Cn4ccc(F)n4)CC3)cnc2c1 |  | 6.96 | 127 | 
8 | O=C(NCCC[C@@H](Cc1ccccc1)C(=O)N1CCC(O)(Cn2cnc(NCCN3CCCC3)cc2=O)CC1)c1ccc2c(Cl)ccnc2c1 [Compound 13, N-(4-benzyl-5-(4-hydroxy-4-((6-oxo-4-(2-(pyrrolidin-1-yl)ethylamino)pyrimidin-1(6H)-yl)methyl)piperidin-1-yl)-5-oxopentyl)-4-chloroquinoline-7-carboxamide] | 0.02 to 0.1 |  | 91.9 | 
9 | C=CC(=O)Nc1ccccc1-c1ccc(C(=O)N2CCC(O)(Cn3cnc4cc(NC(=O)CCN5CCN(C)CC5)ccc4c3=O)CC2)cc1 [Compound 24, N-(4′-(4-hydroxy-4-((7-(3-(4-methylpiperazin-1-yl)propanamido)-4-oxoquinazolin-3(4H)-yl)methyl)piperidine-1-carbonyl)biphenyl-2-yl)acrylamide] | > 1 |  | 23 | 
10 | CN1CCN(CCC(=O)Nc2ccc3c(=O)n(CC4(O)CCN(C(=O)[C@@H](CCCNC(=O)c5ccc6c(Cl)ccnc6c5)Cc5ccccc5)CC4)cnc3c2)CC1 [Compound 59, (S)—N-(4-benzyl-5-(4-hydroxy-4-((7-(3-(4-methylpiperazin-1-yl)propanamido)-4-oxoquinazolin-3(4H)-yl)methyl)piperidin-1-yl)-5-oxopentyl)-4-chloroquinoline-7-carboxamide] | 0.02 to 0.1 |  | 78.9 | 
11 | CNc1cc(Cl)nc2cc(C(=O)NCCCC(Cc3ccccc3)C(=O)N3CCC(O)(Cn4cnc5cc(NC(=O)CCN(C)C)ccc5c4=O)CC3)ccc12 (stereo not drawn) [Compound 70] | 0.02 to 0.1 | 10.3 |  | 
12 | CN(C)CCC(=O)Nc1ccc2c(=O)n(CC3(O)CCN(C(=O)C(CCCNC(=O)c4ccc5c(Cl)cc(C(N)=O)nc5c4)Cc4ccccc4)CC3)cnc2c1 (stereo not drawn) [Compound 71] | 0.1 to 1 | 54.6 |  | 
13 | CN(C)CCC(=O)Nc1ccc2c(=O)n(CC3(O)CCN(C(=O)C(CCCNC(=O)c4ccc5c(Cl)c6c(nc5c4)COCC6)Cc4ccccc4)CC3)cnc2c1 (stereo not drawn) [Compound 89] | 0.02 to 0.1 | 3.34 |  | 
14 | CC(C)c1cnc2cc(C(=O)NCCC[C@H](Cc3ccccc3)C(=O)N3CCC(O)(Cn4cnc5cc(NC(=O)CCN(C)C)ccc5c4=O)CC3)ccc2c1Cl [Compound 119] | < 0.02 | 3.04 |  | 
15 | CN(C)CCCOc1ccc2c(=O)n(CC3(O)CCN(C(=O)[C@H](CCCNC(=O)c4ccc5c(Cl)c6c(nc5c4)CC(C)(C)C6)Cc4ccccc4)CC3)cnc2c1 [Compound 121] | < 0.02 | 6 |  | 

The next lines start with the values.

Row | IC50 [1] [µM] | half-life at 1 µM [2] [min] | half-life at 2 µM [3] [min] | Plasma t1/2, min [3] | Structure (SMILES)
16 | 0.02 to 0.1 | 11 | 328 |  | CN1CCN(CCC(=O)Nc2ccc3c(=O)n(CC4(O)CCN(C(=O)C(CCCNC(=O)c5ccc6c(Cl)ccnc6c5)Cc5ccccc5)CC4)cnc3c2)CC1 (stereo not drawn)
17 | < 0.02 | 46.6 | 112 |  | CN(C)CCCOc1ccc2c(=O)n(CC3(O)CCN(C(=O)[C@H](CCCNC(=O)c4ccc5c(Cl)c(C(N)=O)cnc5c4)Cc4ccccc4)CC3)cnc2c1
18 | < 0.02 | 44.1 | 28.9 |  | CN(C)CCCOc1ccc2c(=O)n(CC3(O)CCN(C(=O)[C@H](CCCNC(=O)c4ccc5c(Cl)c(C(=O)NC6CC6)cnc5c4)Cc4ccccc4)CC3)cnc2c1
19 | < 0.02 | 2.46 | 396 |  | CN(C)CCCOc1ccc2c(=O)n(CC3(O)CCN(C(=O)C(CCCNC(=O)c4ccc5c(Cl)c6c(nc5c4)CCCC6)Cn4ccc(F)n4)CC3)cnc2c1 (stereo not drawn)
20 | < 0.02 | 0.56 | 394 |  | O=C(NCCCC(Cn1ccc(F)n1)C(=O)N1CCC(O)(Cn2cnc3ccccc3c2=O)CC1)c1ccc2c(Cl)c3c(nc2c1)CCCC3 (stereo not drawn)
21 | > 1 | 4.5 |  |  | CNc1cc(Cl)c2ccc(C(=O)NCCCC(Cc3ccccc3)C(=O)N3CCC(O)(Cn4cnc5cc(NC(=O)CCN(C)C)ccc5c4=O)CC3)cc2n1 (stereo not drawn) [Compound 69]
22 | 0.1 to 1 | 29.5 |  |  | CN(C)CCC(=O)Nc1ccc2c(=O)n(CC3(O)CCN(C(=O)C(Cc4ccccc4)c4cccc(NC(=O)c5ccc6c(Cl)ccnc6c5)c4)CC3)cnc2c1 (stereo not drawn) [Compound 72]
23 | > 1 | 5.41 |  |  | Cc1cc(Cl)c2ccc(C(=O)N3CCN(CC(=O)N4CCC(O)(Cn5cnc6cc(Cl)ccc6c5=O)CC4)CC3)cc2n1 [Compound 80]
24 | 0.02 to 0.1 | 11.8 |  |  | CN(C)CCC(=O)Nc1ccc2c(=O)n(CC3(O)CCN(C(=O)C(CCCNC(=O)c4ccc5c(Cl)ccnc5c4)Cc4ccc(F)cc4)CC3)cnc2c1 (stereo not drawn) [Compound 81]
25 | 0.1 to 1 | 2.21 |  |  | Cc1nc2c(=O)n(CC3(O)CCN(C(=O)C4CCN(CCNC(=O)c5ccc6c(Cl)ccnc6c5)CC4c4ccccc4)CC3)cnc2n1-c1ccc(F)cc1 (stereo not drawn) [Compound 110]
26 | < 0.02 | 5.89 |  |  | CC(C)c1cc(Cl)c2ccc(C(=O)NCCC[C@H](Cc3ccccc3)C(=O)N3CCC(O)(Cn4cnc5cc(OCCCN(C)C)ccc5c4=O)CC3)cc2n1 [Compound 120]
